In article PMC10177926, “Leveraging the 3-Chloro-4-fluorophenyl Motif to Identify Inhibitors of Tyrosinase from Agaricus bisporus” (International Journal of Molecular Sciences, 2023):

biological target: tyrosinase from Agaricus bisporus (AbTYR) (Agaricus bisporus, UniProt C7FF04); test: diphenolase inhibition of AbTYR (L-DOPA substrate, absorbance at 475 nm); format: biochemical; settings: diphenolase activity
Experimental: Mushroom tyrosinase (EC 1.14.18.1) was supplied by Merck (Cat. No. T3824). In vitro assay was performed according to the method of Mirabile et al.. Each sample (0.05 mL) at different concentrations (0.10–200 μM) was mixed with 0.5 mL of L-DOPA solution (1.25 mM) and 0.9 mL of phosphate buffer solution (pH 6.8). After a 10 min incubation at 25 °C, 0.05 mL of an aqueous solution of the enzyme was added to the mixture. […] The inhibition rate was calculated with the following mathematical equation:Inhibition % = (A − B/A) × 100 where A = absorbance of negative control and B = absorbance of test sample. Finally, IC50 values were determined by interpolation of the dose–response curves.

Chain of tyrosinase from Agaricus bisporus (AbTYR) (C7FF04 2-392): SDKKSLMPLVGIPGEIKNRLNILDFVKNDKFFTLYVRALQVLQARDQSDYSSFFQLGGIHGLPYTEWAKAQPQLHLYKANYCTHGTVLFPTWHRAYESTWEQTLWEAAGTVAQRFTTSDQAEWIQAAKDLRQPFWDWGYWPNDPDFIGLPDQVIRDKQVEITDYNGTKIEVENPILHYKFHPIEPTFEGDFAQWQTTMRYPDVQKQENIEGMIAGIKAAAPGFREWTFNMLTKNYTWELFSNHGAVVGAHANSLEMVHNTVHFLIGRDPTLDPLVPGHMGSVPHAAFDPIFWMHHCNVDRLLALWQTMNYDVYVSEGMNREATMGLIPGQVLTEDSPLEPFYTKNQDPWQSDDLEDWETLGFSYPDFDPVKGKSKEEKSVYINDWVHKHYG

SMILES	AbTYR inhibitory effect, result in words
Nn1c(SCc2ccc(F)cc2Cl)nnc1-c1ccncc1 [3c, 3-((2-Chloro-4-fluorobenzyl)thio)-5-(pyridin-4-yl)-4H-1,2,4-triazol-4-amine]	inhibitory effects dramatically disappeared

system: not given; test: not given; settings: not given

SMILES	melting point [°C]
O=C(c1ccc(Cl)cc1Cl)N1CCN(Cc2ccc(F)c(Cl)c2)CC1 [1d, (4-(3-Chloro-4-fluorobenzyl)piperazin-1-yl)(2,4-dichlorophenyl)methanone]	121 to 124
O=C(c1cc(F)ccc1C(F)(F)F)N1CCN(Cc2ccc(F)c(Cl)c2)CC1 [1e, (4-(3-Chloro-4-fluorobenzyl)piperazin-1-yl)(5-fluoro-2-(trifluoromethyl)phenyl)methanone]	133 to 135
O=C(c1cc2ccccc2s1)N1CCN(Cc2ccc(F)c(Cl)c2)CC1 [1f, Benzo[b]thiophen-2-yl(4-(3-chloro-4-fluorobenzyl)piperazin-1-yl)methanone]	111 to 113
O=C(CN1CCN(Cc2ccc(F)c(Cl)c2)CC1)N1CCN(c2ccc(O)cc2)CC1 [2c, 2-(4-(3-Chloro-4-fluorobenzyl)piperazin-1-yl)-1-(4-(4-hydroxyphenyl)piperazin-1-yl)ethanone]	165 to 168
CC(C(=O)N1CCN(c2ccc(O)cc2)CC1)N1CCN(Cc2ccc(F)c(Cl)c2)CC1 (stereo not shown) [2d, 2-(4-(3-Chloro-4-fluorobenzyl)piperazin-1-yl)-1-(4-(4-hydroxyphenyl)piperazin-1-yl)propan-1-one]	172 to 174

Further lines, results first:

melting point [°C]	SMILES
164 to 165	Nn1c(SCc2ccc(F)c(Cl)c2)nnc1-c1ccncc1 [3b, 3-(3-Chloro-4-fluorobenzylthio)-5-(pyridin-4-yl)-4H-1,2,4-triazol-4-amine]
171 to 172	Nn1c(SCc2ccc(F)cc2Cl)nnc1-c1ccncc1 [3c, 3-((2-Chloro-4-fluorobenzyl)thio)-5-(pyridin-4-yl)-4H-1,2,4-triazol-4-amine]
164 to 166	Nn1c(SCc2ccc(F)c(Cl)c2)nnc1-c1ccccc1 [3d, 3-(3-Chloro-4-fluorobenzylthio)-5-phenyl-4H-1,2,4-triazol-4-amine]
34 to 35	c1ccc(SCSc2ccccc2)cc1 [4b, Phenylsulfanylmethylsulfanylbenzene]
